Laboratory results as given in paper PMC4321733 (Bioorganic & medicinal chemistry letters, 2014).

molecular target: PDE10A (Homo sapiens, UniProt Q9Y233); test: scintillation proximity assay; settings: ratio of IC50 values
Sequence (Q9Y233 whole entry): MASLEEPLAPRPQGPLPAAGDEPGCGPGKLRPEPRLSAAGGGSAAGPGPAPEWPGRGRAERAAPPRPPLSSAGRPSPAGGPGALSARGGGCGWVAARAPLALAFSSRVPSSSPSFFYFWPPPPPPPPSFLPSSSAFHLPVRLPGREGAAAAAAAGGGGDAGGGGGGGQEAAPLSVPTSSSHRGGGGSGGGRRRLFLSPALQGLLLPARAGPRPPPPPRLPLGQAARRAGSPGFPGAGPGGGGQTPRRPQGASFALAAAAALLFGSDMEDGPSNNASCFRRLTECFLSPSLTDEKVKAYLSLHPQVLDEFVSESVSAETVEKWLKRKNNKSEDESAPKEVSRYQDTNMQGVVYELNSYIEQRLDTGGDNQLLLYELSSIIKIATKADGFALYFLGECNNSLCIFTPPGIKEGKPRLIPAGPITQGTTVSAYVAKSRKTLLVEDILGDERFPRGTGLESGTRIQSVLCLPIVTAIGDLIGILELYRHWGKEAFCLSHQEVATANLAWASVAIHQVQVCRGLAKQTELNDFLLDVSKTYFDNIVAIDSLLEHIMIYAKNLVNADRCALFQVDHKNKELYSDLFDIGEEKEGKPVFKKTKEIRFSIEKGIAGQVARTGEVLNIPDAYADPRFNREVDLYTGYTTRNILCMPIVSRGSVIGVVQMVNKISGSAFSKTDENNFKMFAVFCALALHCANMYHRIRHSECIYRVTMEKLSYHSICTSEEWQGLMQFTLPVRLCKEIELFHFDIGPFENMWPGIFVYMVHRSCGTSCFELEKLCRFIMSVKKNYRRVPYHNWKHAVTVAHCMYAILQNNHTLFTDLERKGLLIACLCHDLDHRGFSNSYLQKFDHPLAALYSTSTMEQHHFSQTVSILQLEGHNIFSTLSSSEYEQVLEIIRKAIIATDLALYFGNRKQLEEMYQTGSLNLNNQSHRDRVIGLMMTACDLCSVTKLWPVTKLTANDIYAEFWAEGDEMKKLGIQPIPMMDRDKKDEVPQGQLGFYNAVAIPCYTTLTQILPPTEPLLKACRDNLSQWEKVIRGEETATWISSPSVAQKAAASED

SMILES | in vitro selectivity for PDE10A over PDE3A/3B, PDE4A/4B
COc1cc2nncc(-c3cnc(N4CCC(O)(c5ccc(F)nc5)CC4)c(C)c3)c2cc1OC [Compound 26b] | > 1,000 fold
COc1cc2nncc(-c3cnc(N4CCC(O)(c5cccnc5)CC4)c(C)c3)c2cc1OC [Compound 26a] | > 1,000 fold
Cn1c(C(=O)c2ccc(Oc3ncccc3-c3cccnc3)cc2)nc2ccccc21 [Compound 33c] | > 1,000 fold
